We go through 38 molecules from patent US8895585B2, “Nicotinamide derivative or salt thereof” (FUJIFILM Corporation, priority 2010, dated 2014).

The first assay addresses T1, glutathione S-transferase (GST)-fused full-length human Syk protein (Homo sapiens, UniProt P43405).
T1 construct: (GST)-fused full-length human Syk protein; GST (glutathione S-transferase); purchased Carna Biosciences
The assay is described as follows: Syk enzyme assay. It is filed as biochemical. The conditions noted are these: Syk enzyme assay, Test Example 1; read-out: IC50 of Syk-inhibitory activity. Here is the method:
A glutathione S-transferase (GST)-fused full-length human Syk protein (Carna Biosciences), which had been generated using a Baculovirus expression system, was used in the Syk enzyme assay.
15 μl of a reaction solution (1.2 ng Syk, 20 mM HEPES, 10 mM MgCl2, 50 mM NaCl, 2 mM DTT, 0.05% BSA, pH 7.0) containing a Syk protein and a predetermined concentration of a test compound was shaken for 2 minutes, and it was then left at rest at room temperature for 13 minutes. Thereafter, 5 μl of Biotin-EDPDYEWPSA-NH2 (final concentration: 0.4 μM) serving as a substrate peptide and 5 μl of ATP (final concentration: 27 μM) were added to the reaction solution, and the obtained mixture was then shaken for 2 minutes. The reaction solution was further left at rest at room temperature for 40 minutes, so as to carry out an enzyme reaction.
Thereafter, 50 μl of a reaction termination solution [5 μg/ml Streptavidin, 0.18 μg/ml PT66-K, 30 mM HEPES (pH 7.0), 150 mM KF, 75 mM EDTA, 0.15% BSA, 0.075% Tween20], which contained Streptavidin-Xlent (Cisbio) and Mab PT66-K (Cisbio), was added to the reaction solution to terminate the enzyme reaction. At the same time, the reaction solution was left at rest at room temperature for 1 hour, so as to carry out an antigen-antibody reaction. Thereafter, using EnVision (PerkinElmer), the time-resolved fluorescence was measured at 615 nm and 665 nm, so that the phosphorylation of the substrate peptide was measured.
In addition, the following are standards for evaluating IC50 of Syk-inhibitory activity used in Table 21. • A: Up to 10 nM • B: 10 to 50 nM • C: 50 to 100 nM • D: 100 to 1000 nM The set of numbers (XYZ-xyz) given in each Example number column indicates the corresponding Example number (Example XYZ-xyz) in Table 21.
Take `NC(=O)c1cc(F)c(N[C@@H]2CCCC[C@@H]2N)nc1Nc1cncc(CO)c1` (relative stereo) [Example 004-193, 6-(cis-2-aminocyclohexylamino)-5-fluoro-2-((5-(hydroxymethyl)pyridin-3-yl)amino)nicotinamide]: the IC50 was 50 to 100 nM.
On the same count and under the same terms, the value for `CN(C)C(=O)c1cncc(Nc2nc(N[C@@H]3CCCC[C@@H]3N)c(F)cc2C(N)=O)c1` [Example 004-015] was 100 to 1000 nM; that for `COCCn1ccc2c(Nc3nc(N[C@@H]4CCCC[C@@H]4N)c(F)cc3C(N)=O)cc(F)cc21` (relative stereo) [Example 004-084, 6-(cis-2-aminocyclohexylamino)-5-fluoro-2-((6-fluoro-1-(2-methoxyethyl)-1H-indol-4-yl)amino)nicotinamide] was less than 10 nM.
For `COc1ccc2ccc(Nc3nc(NC4CCCCC4N)c(F)cc3C(N)=O)cc2n1` (centres unmarked) [Example 002-088], the IC50 was less than 10 nM.
`CN(C)c1ccc2cc(Nc3nc(N[C@@H]4CCCC[C@@H]4N)c(F)cc3C(N)=O)cnc2c1` [Example 004-126]: the half-inhibitory concentration (IC50) lay within 10 to 50 nM.
In the case of `NC(=O)c1cc(F)c(N[C@@H]2CCCC[C@@H]2N)nc1Nc1cncc(-c2cccc(N3CCOCC3)c2)c1` (relative stereo) [Example 004-221, 6-(cis-2-aminocyclohexylamino)-5-fluoro-2-((5-(3-morpholinophenyl)pyridin-3-yl)amino)nicotinamide], the IC50 is less than 10 nM.
On the same count and under the same terms, the value for `COc1cc(Nc2nc(NCC3CC3)c(F)cc2C(N)=O)cc(OC)c1` [Example 016-008] was 100 to 1000 nM.
Same read-out and setting: the value for `NC(=O)c1cc(F)c(NC2CCCCC2N)nc1Nc1ccnc(OCc2ccccc2)c1` (centres unmarked) [Example 002-086] was 10 to 50 nM; that for `NC(=O)c1cc(F)c(NC(Cc2ccccc2)C(N)=O)nc1Nc1ccc2ncsc2c1` (centres unmarked) [Example 012-006] was 10 to 50 nM.
Still for that read-out and setting: the value for `NC(=O)c1cc(F)c(N[C@@H]2CCCC[C@@H]2N)nc1Nc1ccc2c(OCC3CCCO3)nccc2c1` (relative stereo) [Example 004-171, 6-(cis-2-aminocyclohexylamino)-5-fluoro-2-((1-((tetrahydrofuran-2-yl)-methoxy)isoquinolin-6-yl)amino)nicotinamide] was less than 10 nM; that for `NC(=O)c1cc(F)c(N[C@@H]2CCCC[C@@H]2N)nc1Nc1ccc2[nH]c(C(=O)N3CCOCC3)cc2c1` (relative stereo) [Example 029-017, 6-(cis-2-aminocyclohexylamino)-5-fluoro-2-((2-(morpholine-4-carbonyl)-1H-indol-5-yl)amino)nicotinamide] was less than 10 nM.
In the case of `NC(=O)c1cc(F)c(NC2CCCCC2N)nc1Nc1ccnc(-c2cc(Cl)ccc2F)c1` (centres unmarked) [Example 002-147], the 50% inhibitory concentration (IC50) was less than 10 nM.
Still for that read-out and setting: next, `CNc1cccc2cc(Nc3nc(N[C@@H]4CCCC[C@@H]4N)c(F)cc3C(N)=O)cnc12` (relative stereo) [Example 004-116, 6-(cis-2-aminocyclohexylamino)-5-fluoro-2-((8-(methylamino)quinolin-3-yl)amino)-nicotinamide]: less than 10 nM.
On the same count and under the same terms, next, `COc1ccc2cc(Nc3nc(NC4CCCCC4N)c(F)cc3C(N)=O)ccc2n1` (centres unmarked) [Example 002-101]: less than 10 nM; `Cc1cc(Nc2nc(N[C@H](CCCN)[C@H](C)N)c(F)cc2C(N)=O)cnc1C` [Example 045-000]: 100 to 1000 nM.
Still for that read-out and setting: next, `NC(=O)c1cc(F)c(NCCc2cnc[nH]2)nc1Nc1ccc2ncccc2c1` [Example 012-014]: 100 to 1000 nM.
For the molecule `Cc1ccccc1-c1cncc(Nc2nc(N[C@@H]3CCCC[C@@H]3N)c(F)cc2C(N)=O)c1` (relative stereo) [Example 004-101, 6-(cis-2-aminocyclohexylamino)-5-fluoro-2-((5-(2-methylphenyl)pyridin-3-yl)amino)-nicotinamide], the IC50 was 10 to 50 nM.
Same read-out and setting: the value for `COc1ccc(-c2cc(Nc3nc(N[C@@H](CN)CC(C)C)c(F)cc3C(N)=O)ccn2)c(F)c1` [Example 006-328, (R)-6-((1-amino-4-methylpentan-2-yl)amino)-5-fluoro-2-((2-(2-fluoro-4-methoxyphenyl)pyridin-4-yl)amino)nicotinamide] was less than 10 nM.
Still for that read-out and setting: the value for `Cc1cc(C)cc(Nc2nc(NCCN)c(Cl)cc2C(N)=O)c1` [Example 035-008] was less than 10 nM.
On the same count and under the same terms, next, `CCOCCOCCn1cc2ccc(Nc3nc(NC4CCCCC4N)c(F)cc3C(N)=O)cc2n1` (centres unmarked) [Example 002-045]: 10 to 50 nM.
For the molecule `NCCNCCNc1nc(Nc2ccnc(-n3cncn3)c2)c(C(N)=O)cc1F` [Example 002-130], the IC50 is 100 to 1000 nM.
On the same count and under the same terms, next, `CCC(N)CNc1nc(Nc2ccc3ncccc3c2)c(C(N)=O)cc1F` (centres unmarked) [Example 014-004]: 10 to 50 nM.
For the molecule `CCC(C)COc1ccc2cc(Nc3nc(NC4CCCCC4N)c(F)cc3C(N)=O)ccc2n1` (centres unmarked) [Example 002-106], the IC50 is 50 to 100 nM.
The same measure, in the same setting: the value for `Cn1c(C(=O)N2CCOCC2)cc2c(Nc3nc(NC4CCCC[C@@H]4N)c(F)cc3C(N)=O)ccnc21` (some centres unmarked) [Example 029-010] was 100 to 1000 nM; that for `NC(=O)c1cc(F)c(NC2CCCCC2N)nc1Nc1ccnc(-c2ccccc2)c1F` (centres unmarked) [Example 002-167] was 10 to 50 nM.
On the same count and under the same terms, the value for `NC(=O)c1cc(F)c(N[C@@H]2CCCC[C@@H]2N)nc1Nc1ccc(Nc2ccccc2)nc1` (relative stereo) [Example 006-164, 6-((cis-2-aminocyclohexyl)amino)-5-fluoro-2-((6-(phenylamino)pyridin-3-yl)amino)nicotinamide] was 10 to 50 nM; that for `CCCCOCCOCCOc1ccc2cc(Nc3nc(NC4CCCCC4N)c(F)cc3C(N)=O)ccc2n1` (centres unmarked) [Example 002-111] was 10 to 50 nM; that for `NC(=O)c1cc(F)c(NC2CCCCC2N)nc1Nc1cccn2ccnc12` (centres unmarked) [Example 002-064] was 100 to 1000 nM.
Same read-out and setting: the value for `COCCn1ncc2cc(Nc3nc(N[C@H](C)[C@H](C)N)c(F)cc3C(N)=O)ccc21` (racemic) [Example 006-197, 6-(((2R,3S)-3-aminobutan-2-yl)amino)-5-fluoro-2-((1-(2-methoxyethyl)-1H-indazol-5-yl)amino)nicotinamide 6-(((2S,3R)-3-aminobutan-2-yl)amino)-5-fluoro-2-((1-(2-methoxyethyl)-1H-indazol-5-yl)amino)nicotinamide] was 10 to 50 nM.
For the molecule `COc1ccc(F)c(-c2cncc(Nc3nc(N[C@@H](CN)CC(C)C)c(F)cc3C(N)=O)c2)c1` [Example 006-320, (R)-6-((1-amino-4-methylpentan-2-yl)amino)-5-fluoro-2-((5-(2-fluoro-5-methoxyphenyl)pyridin-3-yl)amino)nicotinamide], the half-maximal inhibitory concentration (IC50) lay in the range of 50 to 100 nM.
Still for that read-out and setting: the value for `CC(C)Oc1nccc2cc(Nc3nc(N[C@@H]4CCCC[C@@H]4N)c(F)cc3C(N)=O)ccc12` (relative stereo) [Example 004-166, 6-(cis-2-aminocyclohexylamino)-5-fluoro-2-((1-isopropoxyisoquinolin-6-yl)amino)-nicotinamide] was less than 10 nM; that for `NC(=O)c1cc(F)c(NC2CCCCC2N)nc1Nc1cncc(NC(=O)c2cc3ccccc3o2)c1` (centres unmarked) [Example 027-041] was less than 10 nM; that for `CS(=O)(=O)Nc1cccc2cc(Nc3nc(N[C@@H]4CCCC[C@@H]4N)c(F)cc3C(N)=O)cnc12` (relative stereo) [Example 41-2, 6-(cis-2-aminocyclohexylamino)-5-fluoro-2-((8-(methylsulphonamide)quinolin-3-yl)amino)nicotinamide] was less than 10 nM.
The same measure, in the same setting: next, `C#CCNc1nc(Nc2cc(OC)cc(OC)c2)c(C(N)=O)cc1F` [Example 016-012]: 100 to 1000 nM.
Still for that read-out and setting: the value for `NC(=O)c1cc(F)c(N[C@@H]2CCCC[C@@H]2N)nc1Nc1ccc2[nH]ccc2c1` (relative stereo) [Example 004-070, 2-((1H-indol-5-yl)amino)-6-(cis-2-aminocyclohexylamino)-5-fluoronicotinamide] was less than 10 nM; that for `CN1CCOc2nc3ccc(Nc4nc(NC5CCCCC5N)c(F)cc4C(N)=O)cc3nc21` (centres unmarked) [Example 002-122] was less than 10 nM.

Staying with this assay, now noted: read-out: Syk-inhibitory activity (IC50).
Take `CNC(=O)c1cc(Nc2nc(N[C@@H]3CCCC[C@@H]3N)c(F)cc2C(N)=O)ccn1` (relative stereo) [Example 29-13, 4-((3-aminocarbonyl-6-(cis-2-aminocyclohexylamino)-5-fluoropyridin-2-yl)amino)-N-methylpyridin-2-carboxamide]: the IC50 was no more than 1000 nM.
The same measure, in the same setting: the value for `COc1cc(Nc2nc(N[C@@H](C(N)=O)c3ccccc3)c(F)cc2C(N)=O)cc(OC)c1` [Example 16-17, 6-(((1R)-2-amino-2-oxo-1-phenylethyl)amino)-2-((3,5-dimethoxyphenyl)amino)-5-fluoronicotinamide] was no more than 1000 nM.

The term IC50 denotes the concentration needed to halve the response being measured.
